Source: paper PMC12358994, “Proline Homologation in Melanostatin Neuropeptide: Discovery of Potent Modulators of the Dopamine D2 Receptors” (ACS Medicinal Chemistry Letters, 2025)
Peptide text beside a SMILES is read from it.

Tests used:
[1] = tested on: differentiated SH-SY5Y neuronal cells; assay: MTT reduction assay in differentiated SH-SY5Y cells; type: cell-based, human; conditions: 125 μM, 48 h; positive control for cytotoxicity
Method: (§1) Following a protocol established in our research group, , these compounds were tested at 100 μM concentration using the 3-(4,5-dimethylthiazol-2-yl)-2,5-diphenyltetrazolium bromide (MTT) reduction and the neutral red (NR) uptake assays.
(§2) 5 Neurotoxic effects of the synthesized compounds were examined via MTT reduction (A) and NR uptake (B) assays in differentiated SH-SY5Y neuronal cells. Cells were incubated for 48 h with 1, 9, MIF-1 (100 μM), or 6-OHDA (125 μM). Compounds were solubilized in phosphate-buffered saline (PBS) solution. Results are reported as a percentage relative to the control (PBS) and shown as mean ± standard deviation. Data were collected from 16 to 36 wells across 9 independent experiments for the MTT reduction assay and from 12 wells and 3 independent experiments for the NR uptake assay. Statistical analyses were performed using the analysis of variance (ANOVA) test, followed by Tukey’s post hoc test (*p < 0.05 and ****p < 0.0001 vs control).
(§3) 4. Cytotoxicity in Human Neuronal SH-SY5Y Cells. The SH-SY5Y cell line was sourced from Sigma-Aldrich (Taufkirchen, Germany). DMEM medium [DMEM (1x) + GlutaMAX], DMEM/F-12, and Fetal Bovine Serum (FBS) were purchased from Gibco and Alfagene (Carcavelos, Portugal). Penicillin and Streptomycin were obtained from Biotecnómica (Porto, Portugal). Phosphate-buffered solution (PBS) without calcium and magnesium was acquired from Biochrom (Berlin, Germany). Trypsin/EDTA solution, 0.4% (w/v) trypan blue solution, NR solution, RA, and TPA were also obtained from Sigma-Aldrich (Germany). DMSO and HBSS (Hanks' Balanced Salt Solution) were purchased from Merck (Germany). MTT was sourced from Alfa Aesar (Kandel, Germany). 6-OHDA hydrobromide (CAS: 636-00-0) was acquired from Sigma-Aldrich (Germany).
(§4) Cell counts were performed on a Neubauer chamber using a Nikon Eclipse TS100 microscope from Nikon (Japan), and plate readings (MTT reduction and NR uptake assays) were conducted on a BioTek Synergy HT plate reader from BioTek (USA). Tissue culture flasks (25 cm²) and tissue culture 48 -well plates were purchased from TPP (Switzerland), while 5-, 10-, and 25-mL serological pipettes were obtained from Nerbe-Plus (Germany). Throughout all procedures, SH-SY5Y cells were maintained in a 5% CO2 incubator from Heraeus (Germany) at 37 °C. Cells were trypsinized after reaching confluence before experiments or for general culture maintenance.
(§5) Human neuroblastoma SH-SY5Y cells were maintained in complete DMEM medium supplemented with 10% (v/v) FBS and 1% (v/v) antibiotics (100 units/mL penicillin and 100 μg/mL streptomycin), at 37 °C in a 5% CO2 incubator throughout all procedures. […] After trypsin inactivation, cells were counted using a 0.4% (w/v) trypan blue solution and an optical microscope. […]

[2] = tested on: differentiated SH-SY5Y neuronal cells; assay: Neutral red (NR) uptake assay in differentiated SH-SY5Y cells; type: cell-based, human; conditions: 125 μM, 48 h; positive control for cytotoxicity
Method: as §1, §2, §3, §4, §5

[3] = MTT reduction assay in differentiated SH-SY5Y cells; type: cell-based, human; conditions: human
Method: as §1, §2, §3, §4, §5

[4] = Neutral red (NR) uptake assay in differentiated SH-SY5Y cells; type: cell-based, human; conditions: human
Method: as §1, §2, §3, §4, §5

[5] = tested on: dopamine receptors isolated from bovine caudate tissue; set-up: method as in Johnson and co-workers; conditions: 100 nM; ref Johnson and co-workers; cited from earlier work
[6] = molecular target: human D2R (Homo sapiens, UniProt P14416); assay: D2R functional assay in the absence of dopamine (intrinsic agonist activity); type: cell-based
Chain of human D2R (P14416 whole entry): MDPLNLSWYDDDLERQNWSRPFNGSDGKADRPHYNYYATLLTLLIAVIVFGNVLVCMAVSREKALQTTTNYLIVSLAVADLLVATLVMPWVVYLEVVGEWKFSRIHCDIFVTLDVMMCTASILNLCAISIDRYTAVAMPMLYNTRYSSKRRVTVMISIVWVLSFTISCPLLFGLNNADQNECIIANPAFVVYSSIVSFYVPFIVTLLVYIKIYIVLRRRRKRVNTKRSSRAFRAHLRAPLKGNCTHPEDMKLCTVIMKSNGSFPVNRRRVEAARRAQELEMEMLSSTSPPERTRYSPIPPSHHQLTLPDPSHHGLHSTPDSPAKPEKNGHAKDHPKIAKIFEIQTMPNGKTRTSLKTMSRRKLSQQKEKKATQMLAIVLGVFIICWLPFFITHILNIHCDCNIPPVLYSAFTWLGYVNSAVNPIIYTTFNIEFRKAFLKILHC
Method: To exclude intrinsic agonist activity and validate the PAM mechanism of the best-performing MIF-1 derivatives 1 and 9, the same experiments were conducted in the absence of dopamine and compared to the concentration–response curve of dopamine alone (Figure ).
3 Concentration–response for compounds 1 and 9 obtained at human D2R in the absence of dopamine (DA), with the DA concentration–response curve included for reference. Data are presented as the mean ± standard deviation from three independent experiments.

NCCc1cc(O)c(O)cc1O [6-OHDA, 6-hydroxydopamine, reference compound]
MTT reduction, percentage relative to control (PBS) [1]: 45.64 ± 11.85% | NR uptake, percentage relative to control (PBS) [2]: 57.26 ± 7.41%

CC(C)C[C@H](NC(=O)[C@@H]1CCCN1)C(=O)NCC(N)=O [MIF-1, L-prolyl-L-leucylglycinamide, reference compound] (H-Pro-Leu-Gly-NH2)
viability at 48 h, 100 µM [3]: 105 ± 6% | viability at 48 h, 100 µM [4]: 97.8 ± 8.56% | enhancement of specific binding of [3H]-ADTN (maximal effect) [5]: 46.2 ± 13.4%

CC(C)C[C@H](NC(=O)[C@@H]1CCCCN1)C(=O)NCC(N)=O [compound 1, L-pipecolyl-L-leucylglycinamide] (HELM PEPTIDE1{[O=C([C@@H]1CCCCN1)[*:2]].L.G.[am]}$$$$V2.0)
intrinsic agonistic effect [6]: no intrinsic agonistic effect | viability at 48 h, 100 µM [3]: 105 ± 7.1% | viability at 48 h, 100 µM [4]: 102 ± 3.48% | enhancement of specific binding of [3H]-ADTN (maximal effect) [5]: 58.7 ± 9.3%

COC(=O)CNC(=O)[C@H](CC(C)C)NC(=O)[C@@H]1CCCCN1 [compound 9, methyl L-pipecolyl-L-leucylglycinate] (HELM PEPTIDE1{[O=C([C@@H]1CCCCN1)[*:2]].L.G.[CO[*:1]]}$$$$V2.0)
intrinsic agonistic effect [6]: no intrinsic agonistic effect | viability at 48 h, 100 µM [3]: 105 ± 6.8% | viability at 48 h, 100 µM [4]: 100 ± 2.09%
